According to patent publication US10709723B2, “Pharmaceutical anti-infective composition for inhalation” (GALEPHAR PHARMACEUTICAL RESEARCH, INC., priority 2006, dated 2020):
Values after ≈ are worked out from the molar mass of the structure shown. Read-outs that look alike come from different tables or passages of the source.

Experiments:
[1] = test system: planktonic Pseudomonas aeruginosa; assay: MIC on planktonic bacteria (NCCLS dilution standard); assay type: cell-based
Experimental: The determination of the minimal inhibitory concentration (MIC) is performed according to the standard of NCCLS (NCCLS, Methods for dilution Antimicrobial Susceptibility Tests for bacteria that grow aerobically; approved standards, sixth edition, M7-A6, vol. 23 no. 2, January 2003.

[2] = test system: 12 day biofilm of Pseudomonas aeruginosa; assay: Bacterial count (CFU/ml) of 12-day biofilm after 24 hours with the products; assay type: cell-based; details: tobramycin 4 μg/ml alone; clarithromycin 100, 200 and 500 μg/ml alone; all combinations
Text: Biofilms of Pseudomonas aeruginosa—strain PY O1 were formed according to the methods described by Ceri et al, the calgary biofilm device: new technology for rapid determination of antibiotic susceptibilities of bacterial biofilms, Journal of clinical microbiology, pp. 1771-1776, 1999 and Abdi-Ali et al, bactericidal activity of various antibiotics against biofilm-producing Pseudomonas aeruginosa, International Journal of Antimicrobial Agents 27, 196-200, 2006.
PY O1: is a cystic Fibrosis clinical mucoid strain of Pseudomonas aeruginosa received from the Erasme Hospital, Brussels.
After having shown that the number of Pseudomonas aeruginosa within the biofilms was stable after 12 days, the products listed in Table 1 were added to the media for the duration of 24 hours. Thereafter the biofilm was rinsed three times with a 0.01M phosphate buffer adjusted at pH 7.5 in order to remove all cells not bound to the biofilm. The microplate was then placed on ultrasonic bath at 35° C. for 5 minutes to allow the bacteria present in the biofilm to separate from such biofilm. A bacterial count was then performed (number of coloning forming unit CFU/ml). Each experience was done twice and the CFU counting was also repeated twice/experience.

[3] = In vitro lung deposition, Multistage Liquid Impinger (MLI); assay type: physicochemical; details: for lung concentration obtained per capsule: composition of example 6, epithelial liquid in the lung estimated at about 100 ml
Text: The amount of macrolide agent inhaled shall be high enough to affect, in some way, the biofilm. It has to be noted that as the effect of macrolide derivatives on the biofilm is mediated through a non-antibacterial mechanism. […] Nevertheless, it is a another object of the present invention to provide a composition containing high concentrations (or amounts) of each of the aminoglycoside derivative and of the macrolide derivative i.e. at least more than 10%, preferably more than 15%, and more preferably more than 20% of the dry powder composition. It is indeed particularly interesting to achieve high lung doses of those therapeutic agents with the minimum amounts of inhalations because it makes the administration easier and more importantly increase the patient's compliance. It also decreases the nominal dose of each active ingredient and thus the adverse effects linked to these actives. In the present invention, the dry powder inhaler also provides a high Fine Particle Dose (FPD) and Fine Particle […] (FPF) when tested in vitro on a Multistage Liquid Impinger (MLI, Eur. Pharm, 5th Edition, chapter 2.9.18). The FPD and FPF are the parameters that predict in vivo lung deposition.
The in vitro lung deposition test was performed using equipment and conditions as described in the European Pharmacopoeia (5th edition, chapter 2.9.18—apparatus C). This equipment consists of a Multistage Liquid Impinger (MLI) and was operated with an air flow of 100 L/min during a period of time of 2.4 seconds to simulate inhalation capabilities of patients. The quantification of the deposition of each drug on each stage of the MLI was performed by HPLC equipped with a a Corona detector.

[4] = composition of example 6, 10 mg/capsule, MLI 100 L/min, Mean (n = 3)
[5] = composition of example 6, 10 mg/capsule, MLI 100 L/min, run MLI1
[6] = composition of example 6, 10 mg/capsule, MLI 100 L/min, run MLI2
[7] = composition of example 6, 10 mg/capsule, MLI 100 L/min, run MLI3

Compound: NC[C@H]1O[C@H](O[C@H]2[C@H](O)[C@@H](O[C@H]3O[C@H](CO)[C@@H](O)[C@H](N)[C@H]3O)[C@H](N)C[C@@H]2N)[C@H](N)C[C@@H]1O [Tobramycin]
- MIC ([1]; read-out: MIC): 3.9 µg/mL (≈ 8.34 µM)
- Decrease of the number of CFU/ml of the 12-day biofilm versus the positive control [2]: neither tobramycin 4 μg/ml nor clarithromycin at 100, 200 and 500 μg/ml alone are able to decrease the number of CFU/ml
- FPD [3, 4]: 4.26 mg
- Filter deposition [3, 4]: 0.760 mg
- FPD [3, 5]: 3.60 mg
- FPD [3, 6]: 4.45 mg
- FPD [3, 7]: 4.72 mg
- lung concentration obtained per capsule [3]: 42.6 µg/mL

Compound: CC[C@H]1OC(=O)[C@H](C)[C@@H](O[C@H]2C[C@@](C)(OC)[C@@H](O)[C@H](C)O2)[C@H](C)[C@@H](O[C@@H]2O[C@H](C)C[C@H](N(C)C)[C@H]2O)[C@](C)(OC)C[C@@H](C)C(=O)[C@H](C)[C@@H](O)[C@]1(C)O [Clarithromycin]
- MIC [1]: not sensitive
- Decrease of the number of CFU/ml of the 12-day biofilm versus the positive control [2]: neither tobramycin 4 μg/ml nor clarithromycin at 100, 200 and 500 μg/ml alone are able to decrease the number of CFU/ml
- FPD [3, 4]: 3.63 mg
- Filter deposition [3, 4]: 0.550 mg
- FPD [3, 5]: 3.14 mg
- FPD [3, 6]: 3.76 mg
- FPD [3, 7]: 3.98 mg
- Stage 2 deposition [3, 7]: 0.680 mg
- lung concentration obtained per capsule [3]: 36.3 µg/mL
